Experimental data: patent US6117840A, “CS-1 peptidomimetics, compositions and methods of using the same” (Cytel Corporation, priority 1997, dated 2000)
Square brackets hold non-standard residues; d marks the D form. Peptide text beside a SMILES is read from it. * marks the point of attachment. Phe(4-NO2) = N[C@@H](Cc1ccc([N+](=O)[O-])cc1)C(=O)O; hPhe = N[C@@H](CCc1ccccc1)C(=O)O; Cha = N[C@@H](CC1CCCCC1)C(=O)O; Phg = N[C@H](C(=O)O)c1ccccc1; PhAc = O=C(Cc1ccccc1)*; Inp = O=C(O)C1CCNCC1; Bz = O=C(c1ccccc1)*

Biological target: T1, VLA-4 (Homo sapiens, UniProt P05556+P13612)
T1 construct: host or cells: Jurkat (human T lymphoblastic line)
T1 sequence (P13612 34-1032): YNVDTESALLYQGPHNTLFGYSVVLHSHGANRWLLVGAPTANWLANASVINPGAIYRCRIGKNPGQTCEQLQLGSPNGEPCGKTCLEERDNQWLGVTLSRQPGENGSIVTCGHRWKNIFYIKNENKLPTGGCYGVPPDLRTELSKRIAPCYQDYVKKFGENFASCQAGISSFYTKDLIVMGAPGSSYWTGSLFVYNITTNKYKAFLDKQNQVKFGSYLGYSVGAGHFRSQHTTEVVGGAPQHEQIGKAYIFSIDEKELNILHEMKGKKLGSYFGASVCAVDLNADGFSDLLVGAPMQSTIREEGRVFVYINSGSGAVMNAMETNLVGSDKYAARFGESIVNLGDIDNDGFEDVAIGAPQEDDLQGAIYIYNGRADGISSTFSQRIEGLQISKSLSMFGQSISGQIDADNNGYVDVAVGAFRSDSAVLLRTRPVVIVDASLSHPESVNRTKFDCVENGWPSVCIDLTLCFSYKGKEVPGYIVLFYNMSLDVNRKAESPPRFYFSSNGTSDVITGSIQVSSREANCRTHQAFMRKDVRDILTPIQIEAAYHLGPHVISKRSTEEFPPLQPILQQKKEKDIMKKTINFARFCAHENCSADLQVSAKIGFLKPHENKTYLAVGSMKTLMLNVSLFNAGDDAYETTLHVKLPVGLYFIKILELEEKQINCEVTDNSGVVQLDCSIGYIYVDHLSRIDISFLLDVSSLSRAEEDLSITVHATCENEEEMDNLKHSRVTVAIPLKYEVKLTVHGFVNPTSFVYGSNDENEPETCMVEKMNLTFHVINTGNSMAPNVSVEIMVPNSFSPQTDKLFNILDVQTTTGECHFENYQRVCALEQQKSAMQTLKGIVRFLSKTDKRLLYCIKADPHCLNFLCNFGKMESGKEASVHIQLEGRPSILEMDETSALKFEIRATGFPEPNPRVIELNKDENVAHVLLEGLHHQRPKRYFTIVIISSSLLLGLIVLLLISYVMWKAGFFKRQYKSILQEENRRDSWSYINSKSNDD
T1 sequence (P05556 21-798): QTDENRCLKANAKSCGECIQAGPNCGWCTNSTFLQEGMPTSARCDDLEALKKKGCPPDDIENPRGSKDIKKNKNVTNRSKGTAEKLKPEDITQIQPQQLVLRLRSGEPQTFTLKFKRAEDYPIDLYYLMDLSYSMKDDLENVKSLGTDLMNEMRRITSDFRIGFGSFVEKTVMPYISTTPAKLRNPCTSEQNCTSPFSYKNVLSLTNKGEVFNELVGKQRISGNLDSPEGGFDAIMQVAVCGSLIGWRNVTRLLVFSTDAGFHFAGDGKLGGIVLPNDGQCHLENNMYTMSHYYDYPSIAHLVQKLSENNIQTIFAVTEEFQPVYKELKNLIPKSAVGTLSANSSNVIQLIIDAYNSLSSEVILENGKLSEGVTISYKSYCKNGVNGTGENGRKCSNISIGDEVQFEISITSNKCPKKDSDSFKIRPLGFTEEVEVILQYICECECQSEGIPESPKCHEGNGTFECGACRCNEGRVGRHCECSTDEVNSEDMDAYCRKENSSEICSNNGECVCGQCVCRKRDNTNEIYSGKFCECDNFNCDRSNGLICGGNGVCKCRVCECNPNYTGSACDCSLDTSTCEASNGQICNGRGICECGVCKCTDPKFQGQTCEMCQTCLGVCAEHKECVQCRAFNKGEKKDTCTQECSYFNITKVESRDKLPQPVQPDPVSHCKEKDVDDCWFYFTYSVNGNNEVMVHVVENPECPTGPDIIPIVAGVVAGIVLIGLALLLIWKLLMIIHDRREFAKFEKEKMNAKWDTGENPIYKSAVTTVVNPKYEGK
Format: cell-based
Conditions: not given
Description: Binding inhibition is measured here as a concentration of peptide that inhibits one-half the binding between a standard number of Jurkat cells and a standard amount of CS-1 peptide bound to the surface of a microtiter plate well. Those concentrations are conveniently expressed as IC50 values, smaller numbers indicating a lower concentration required to inhibit 50 percent binding and therefore greater potency. Further specifics of this assay are provided hereinafter.
Jurkat cells (ATCC TIB 152), a human T lymphoblastic line, labeled with ^51 chromium were used to assay in vitro binding inhibition provided by various peptides discussed herein.
The plates were prepared as follows: The 25-mer CS1 peptide (SEQ ID NO:1) dissolved at 0.5-1 μg/ml in a buffer of 0.1M NaHCO3 at pH 9.5 tha also contained 10 μg/ml of bovine serum albumin (BSA) or a conjugate o the CS1 peptide linked to ovalbumin (CS1-OVA) dissolved at 1-2.5 μg/ml in the same buffer was used as the substrate. Each well of the microtiter plates was coated with 50 μl of substrate or buffer alone for controls The wells were permitted to dry out completely and were then rinsed twice with PBS at pH 7.4. Nonspecific binding sites of each well were then blocked using 200 μl per well of RPMI/1 percent BSA for two hours at room temperature. Both solid phaseaffixed substrates provided similar results.
Jurkat cells (3-5×10^6 cells) were placed into a 15 ml Falcon.TM roundbottom tube with a cap. The tube was centrifuged, and the extra medium was then removed.
Two hundred microliters of a ^51 Cr labeling solution were added to th centrifuged cells and maintained in contact with the cells for 90-120 minutes in a warm room. This procedure typically provides about 50,000-100,000 cpm/well with about 80-100 percent cell viability. Longer contact times provide a greater amount of labeling but lower cell viability.
The labeled cells are washed with (i) complete medium, (ii) 1 mM EDTA/PBS and then (iii) RPMI/1 percent BSA free of serum components. The cells are centrifuged after each washing. The cells are finally resuspended in serumfree RPMI/1 percent BSA at a concentration of 1×10^6 viabl cells/ml, which provides a concentration that is diluted by onehalf in th assay.
Inhibitor peptides are prepared as stock solutions at 20 mg/ml in DMSO in 1.5 ml cryogenic screwcap vials, and were stored at -70° C. Using Flow™ roundbottom or Vbottom microtiter plates, the inhibitor peptides were prepared at twice the assay concentration in RPMI/1 percent BSA at 6 μl/well.
Four initial dilutions were typically used.
The ^51 Crlabeled cells (1×10^6 cells at 60 μl/well) were then admixed with the diluted peptide solutions. The admixtures were maintained at room temperature (about 22° C.) for 30 minutes.
One hundred microliters of each inhibitor peptide/cell admixture were transferred to the substratecoated wells. This was done in triplicate for each dilution. The resulting plates were incubated for 30 minutes at 37° C. and then washed gently three times with RPMI/1 percent BSA at 200 μl/well. Binding was observed microscopically, particularly after the second wash.
The bound cells were then lysed by the addition of a 0.5 percent solution of sodium dodecylsulfate in water at 100 μl/well. The resulting solutions were then processed for counting and calculation of IC50 values following usual procedures. Appropriate positive and negative controls were used with each plate so that the results of separate assays could be normalized and compared.

| Compound | VLA-4 binding inhibition, times better than the standard 10-mer peptide of SEQ ID NO:3 | RELATIVE POTENCY (inhibition of VLA-4 binding CS-1) |
| --- | --- | --- |
| CC(C)C[C@H](NC(=O)Cc1ccccc1)C(=O)N[C@@H](CC(=O)O)C(=O)N[C@@H](Cc1ccccc1)C(=O)N1CCC[C@H]1C(=O)NCCN(CCN(CCN(CCNC(=O)[C@@H]1CCCN1C(=O)[C@H](Cc1ccccc1)NC(=O)[C@H](CC(=O)O)NC(=O)[C@H](CC(C)C)NC(=O)Cc1ccccc1)C(=O)[C@@H]1CCCN1C(=O)[C@H](Cc1ccccc1)NC(=O)[C@H](CC(=O)O)NC(=O)[C@H](CC(C)C)NC(=O)Cc1ccccc1)C(=O)[C@@H]1CCCN1C(=O)[C@H](Cc1ccccc1)NC(=O)[C@H](CC(=O)O)NC(=O)[C@H](CC(C)C)NC(=O)Cc1ccccc1)C(=O)[C@@H]1CCCN1C(=O)[C@H](Cc1ccccc1)NC(=O)[C@H](CC(=O)O)NC(=O)[C@H](CC(C)C)NC(=O)Cc1ccccc1 | about 210 times |  |
| CC(=O)N[C@@H](CC(C)C)C(=O)N[C@@H](CC(=O)O)C(=O)N[C@@H](Cc1ccccc1)C(N)=O [L D F acetyl amide] (Ac-Leu-Asp-Phe-NH2) |  | 0 |

Same assay, conditions: compared to standard 10-mer / B12

| Compound | binding inhibition (in words) |
| --- | --- |
| CC[C@H](C)[C@H](NC(=O)[C@H](CCC(=O)O)NC(=O)[C@@H]1CCCN1C(=O)CNC(=O)[C@H](Cc1c[nH]cn1)NC(=O)[C@H](CC(C)C)NC(=O)[C@H](CC(N)=O)NC(=O)[C@@H]1CCCN1C(=O)[C@H](Cc1c[nH]cn1)NC(=O)[C@@H]1CCCN1C(=O)[C@H](CC(C)C)NC(=O)[C@@H](NC(=O)[C@@H](NC(=O)[C@H](CC(C)C)NC(=O)[C@H](CCC(N)=O)NC(=O)[C@@H]1CCCN1C(=O)[C@H](CC(C)C)NC(=O)[C@H](CCC(=O)O)NC(=O)[C@@H](N)CC(=O)O)C(C)C)[C@@H](C)O)C(=O)N[C@@H](CC(C)C)C(=O)N[C@@H](CC(=O)O)C(=O)N[C@H](C(=O)N1CCC[C@H]1C(=O)N[C@@H](CO)C(=O)N[C@H](C(=O)O)[C@@H](C)O)C(C)C [CS-1 peptide, reference compound] (H-DELPQLVTLPHPNLHGPEILDVPST-OH) | three times more potent |

Same assay, conditions: relative to standard peptide SEQ ID NO:3 (=1), normalized IC50; about one-tenth or less of SEQ ID NO:3 assigned zero

| Compound | RELATIVE POTENCY (inhibition of VLA-4 binding CS-1) |
| --- | --- |
| CC(C)C[C@H](NC(=O)Cc1ccccc1)C(=O)N[C@@H](CC(=O)O)C(=O)N[C@@H](Cc1ccccc1)C(=O)N1CCCC1CO (some centres unmarked) | 184 |
| CC(C)C[C@H](NC(=O)Cc1ccccc1)C(=O)N[C@@H](CC(=O)O)C(=O)N[C@@H](Cc1ccccc1)C(=O)N1CC(O)C(O)C1 (some centres unmarked) | 194 |
| CC(C)C[C@H](NC(=O)Cc1ccccc1)C(=O)N[C@@H](CC(=O)O)C(=O)N[C@@H](Cc1ccccc1)C(=O)N1CCN(CCOCCO)CC1 | 505 |
| CC(C)C[C@H](NC(=O)Cc1ccccc1)C(=O)N[C@@H](CC(=O)O)C(=O)N[C@@H](Cc1ccccc1)C(=O)N1CCN(CC(N)=O)CC1 | 319 |
| CC(C)C[C@H](NC(=O)Cc1ccccc1)C(=O)N[C@@H](CC(=O)O)C(=O)N[C@@H](Cc1ccccc1)C(=O)N1CCN(CC(=O)O)CC1 | 2579 |
| CC(C)C[C@H](NC(=O)Cc1ccccc1)C(=O)N[C@@H](CC(=O)O)C(=O)N[C@@H](Cc1ccccc1)C(=O)N1CCS(=O)(=O)CC1 | 1060 |
| CC(C)C[C@H](NC(=O)Cc1ccccc1)C(=O)N[C@@H](CC(=O)O)C(=O)N[C@@H](Cc1ccccc1)C(=O)N1CCC(O)CC1 | 603 |
| CC(C)C[C@H](NC(=O)Cc1ccccc1)C(=O)N[C@@H](CC(=O)O)C(=O)N[C@@H](Cc1ccccc1)C(=O)N1CC[N+](C)(C)CC1 | 313 |
| CCCCCCCCCC(=O)OC1CCN(C(=O)[C@H](Cc2ccccc2)NC(=O)[C@H](CC(=O)O)NC(=O)[C@H](CC(C)C)NC(=O)Cc2ccccc2)CC1 | < 1 |
| CCCCCCCCCCCCCCCCCC(=O)OC1CCN(C(=O)[C@H](Cc2ccccc2)NC(=O)[C@H](CC(=O)O)NC(=O)[C@H](CC(C)C)NC(=O)Cc2ccccc2)CC1 | < 1 |
| CC(C)C[C@H](NC(=O)Cc1ccccc1)C(=O)N[C@@H](CC(=O)O)C(=O)N[C@@H](Cc1ccccc1)C(=O)N1CCSCC1 | 493 |
| CC(C)C[C@H](NC(=O)Cc1ccccc1)C(=O)N[C@@H](CC(=O)O)C(=O)N[C@H]1Cc2ccccc2[C@H]2CCCCN2C1=O | 50 |
| CC(C)C[C@H](NC(=O)Cc1ccccc1)C(=O)N[C@@H](CC(=O)O)C(=O)N[C@@H]1CCCCNC1=O | 17 |
| CC(C)C[C@H](NC(=O)Cc1ccccc1)C(=O)N[C@@H](CC(=O)O)C(=O)NC1Cc2ccccc2N(CCN2CCOCC2)C1=O (some centres unmarked) | 20 |
| CC(C)C[C@H](NC(=O)Cc1ccccc1)C(=O)N[C@@H](CC(=O)O)C(=O)NC1CCCCN(CC(N)=O)C1=O (some centres unmarked) | 97 |
| CC(C)C[C@H](NC(=O)Cc1ccccc1)C(=O)N[C@@H](CC(=O)O)C(=O)NC1Cc2ccccc2N(CC(C)C)C1=O (some centres unmarked) | 6 |

| Compound | RELATIVE POTENCY (inhibition of VLA-4 binding CS-1) |
| --- | --- |
| CC(C)C[C@H](NC(=O)Cc1ccccc1)C(=O)N[C@@H](CC(=O)O)C(=O)NC(Cc1ccccc1)Cc1ccccc1 | 0 |
| CC(C)C[C@H](NC(=O)Cc1ccccc1)C(=O)N[C@@H](CC(=O)O)C(=O)NCCN1CCOCC1 | 13 |
| CC(C)C[C@H](NC(=O)Cc1ccccc1)C(=O)N[C@@H](CC(=O)O)C(=O)NC1Cc2ccccc2NC1=O (some centres unmarked) | 31 |
| CC(C)C[C@H](NC(=O)Cc1ccccc1)C(=O)N[C@@H](CC(=O)O)C(=O)NC1Cc2ccccc2N(CC(N)=O)C1=O (some centres unmarked) | 45 |
| CC(C)C[C@H](NC(=O)Cc1ccccc1)C(=O)N[C@@H](CC(=O)O)C(=O)NC1CCCCNC1=O (some centres unmarked) | 27 |
| CC(C)C[C@H](NC(=O)Cc1ccccc1)C(=O)N[C@@H](CC(=O)O)C(=O)NN(Cc1ccccc1)C(=O)C1CCCC1 | 1 |
| CC(C)C[C@H](NC(=O)Cc1ccccc1)C(=O)N[C@@H](CC(=O)O)C(=O)NN(Cc1ccccc1)Cc1ccccc1 | 0 |
| CC(C)C[C@H](NC(=O)Cc1ccccc1)C(=O)N[C@@H](CC(=O)O)C(=O)NC1CCN(C2CCCCC2)C1=O (some centres unmarked) | 7 |
| NC(=O)[C@H]1CCCN1C(=O)[C@H](Cc1ccccc1)NC(=O)[C@H](CC(=O)O)NC(=O)[C@H](CC1CCCCC1)NC(=O)c1ccccc1 (Bz-[Cha]DF[dP]-NH2) | 17 |
| CC(C)[C@H](NC(=O)[C@H](CC(=O)O)NC(=O)[C@H](CC1CCCCC1)NC(=O)c1ccccc1)C(=O)N1CCC[C@@H]1C(N)=O (Bz-[Cha]DV[dP]-NH2) | 11 |
| CC(C)C[C@H](NC(=O)Cc1ccccc1)C(=O)N[C@@H](CC(=O)O)C(=O)N[C@@H](Cc1ccccc1)C(=O)N1CCC(C(N)=O)CC1 (PhAc-LDF[Inp]-NH2) | 933 |
| CC(C)C[C@H](NC(=O)Cc1ccccc1)C(=O)N[C@@H](CC(=O)O)C(=O)N[C@@H](Cc1ccccc1)C(=O)N1CCC(C(=O)O)CC1 (PhAc-LDF[Inp]-OH) | 828 |
| CC(C)C[C@H](NC(=O)Cc1ccccc1)C(=O)N[C@@H](CC(=O)O)C(=O)N[C@@H](Cc1ccc([N+](=O)[O-])cc1)C(=O)N1CCC[C@@H]1C(N)=O (PhAc-LD[Phe(4-NO2)][dP]-NH2) | 40 |
| CC(C)C[C@H](NC(=O)Cc1ccccc1)C(=O)N[C@@H](CC(=O)O)C(=O)N[C@H](C(=O)N1CCC[C@@H]1C(N)=O)c1ccccc1 (PhAc-LD[Phg][dP]-NH2) | 61 |
| CC(C)C[C@H](NC(=O)Cc1ccccc1)C(=O)N[C@@H](CC(=O)O)C(=O)N[C@@H](CCc1ccccc1)C(=O)N1CCC[C@@H]1C(N)=O (PhAc-LD[hPhe][dP]-NH2) | 94 |
| NC(=O)[C@H]1CCCN1C(=O)[C@H](Cc1ccccc1)NC(=O)[C@H](CC(=O)O)NC(=O)[C@H](CC1CCCCC1)NC(=O)Cc1ccccc1 (PhAc-[Cha]DF[dP]-NH2) | 217 |
